Reference: PubChem BioAssay (NCI)
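Method: 48-hour compound exposure of cells in 96-well plates, five concentrations, linear interpolation of endpoints. At the GI50, growth is halved. TGI marks complete inhibition of growth.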

What was measured:
Assay in all cases: NCI anticancer screen, dose series, 48 h
UACC-62 melanoma = test system: UACC-62 melanoma
MDA-MB-231 breast = test system: MDA-MB-231 breast
ACHN renal = test system: ACHN renal
TK-10 renal = test system: TK-10 renal
MCF7 breast = test system: MCF7 breast
OVCAR-3 ovarian = test system: OVCAR-3 ovarian
K-562 leukemia = test system: K-562 leukemia
HS 578T breast = test system: HS 578T breast
T-47D breast = test system: T-47D breast
786-0 renal = test system: 786-0 renal
SF-295 CNS = test system: SF-295 CNS
NCI-H522 lung = test system: NCI-H522 lung
SK-MEL-5 melanoma = test system: SK-MEL-5 melanoma
DU-145 prostate = test system: DU-145 prostate
HOP-62 NSCLC = test system: HOP-62 NSCLC
HCT-15 colon = test system: HCT-15 colon
SF-268 CNS = test system: SF-268 CNS
CAKI-1 renal = test system: CAKI-1 renal
SR leukemia = test system: SR leukemia
NCI-H226 lung = test system: NCI-H226 lung
SNB-19 CNS = test system: SNB-19 CNS
OVCAR-4 ovarian = test system: OVCAR-4 ovarian
SK-MEL-28 melanoma = test system: SK-MEL-28 melanoma
SW-620 colon = test system: SW-620 colon
U251 CNS = test system: U251 CNS
HCC-2998 colon = test system: HCC-2998 colon
LOX IMVI melanoma = test system: LOX IMVI melanoma
OVCAR-8 ovarian = test system: OVCAR-8 ovarian
UACC-257 melanoma = test system: UACC-257 melanoma
MALME-3M melanoma = test system: MALME-3M melanoma
A549 NSCLC = test system: A549 NSCLC
SNB-75 CNS = test system: SNB-75 CNS
NCI/ADR-RES ovarian = test system: NCI/ADR-RES ovarian
EKVX NSCLC = test system: EKVX NSCLC
MOLT-4 leukemia = test system: MOLT-4 leukemia
SN12C renal = test system: SN12C renal
HOP-92 NSCLC = test system: HOP-92 NSCLC
M14 melanoma = test system: M14 melanoma
OVCAR-5 ovarian = test system: OVCAR-5 ovarian
COLO 205 colon = test system: COLO 205 colon
CCRF-CEM leukemia = test system: CCRF-CEM leukemia
SF-539 CNS = test system: SF-539 CNS
NCI-H23 lung = test system: NCI-H23 lung
RXF 393 renal = test system: RXF 393 renal
KM12 colon = test system: KM12 colon
NCI-H460 lung = test system: NCI-H460 lung
HCT-116 colon = test system: HCT-116 colon
A498 renal = test system: A498 renal
HL-60(TB) leukemia = test system: HL-60(TB) leukemia
PC-3 prostate = test system: PC-3 prostate
SK-MEL-2 melanoma = test system: SK-MEL-2 melanoma
IGROV1 ovarian = test system: IGROV1 ovarian
SK-OV-3 ovarian = test system: SK-OV-3 ovarian
HT29 colon = test system: HT29 colon
RPMI-8226 leukemia = test system: RPMI-8226 leukemia
UO-31 renal = test system: UO-31 renal
BT-549 breast = test system: BT-549 breast
MDA-MB-435 = test system: MDA-MB-435

O=[N+]([O-])c1cc(Cl)c2[nH]c3c(Cl)cc([N+](=O)[O-])cc3c2c1
GI50 (UACC-62 melanoma): 247 nM
TGI (UACC-62 melanoma): > 100000 nM
GI50 (MDA-MB-231 breast): 482 nM
TGI (MDA-MB-231 breast): 8890 nM
GI50 (ACHN renal): 362 nM
GI50 (TK-10 renal): 356 nM
TGI (TK-10 renal): 19100 nM
GI50 (MCF7 breast): 284 nM
TGI (MCF7 breast): > 100000 nM
GI50 (OVCAR-3 ovarian): 279 nM
TGI (OVCAR-3 ovarian): > 100000 nM
GI50 (K-562 leukemia): 243 nM
TGI (K-562 leukemia): > 100000 nM
GI50 (HS 578T breast): 609 nM
TGI (HS 578T breast): > 100000 nM
GI50 (T-47D breast): 254 nM
TGI (T-47D breast): > 100000 nM
GI50 (786-0 renal): 294 nM
TGI (786-0 renal): 16700 nM
GI50 (SF-295 CNS): 229 nM
TGI (SF-295 CNS): 1990 nM
GI50 (NCI-H522 lung): 286 nM
TGI (NCI-H522 lung): > 100000 nM
GI50 (SK-MEL-5 melanoma): 129 nM
TGI (SK-MEL-5 melanoma): 651 nM
GI50 (DU-145 prostate): 508 nM
TGI (DU-145 prostate): > 100000 nM
GI50 (HOP-62 NSCLC): 971 nM
TGI (HOP-62 NSCLC): > 38400 nM
GI50 (HCT-15 colon): 355 nM
TGI (HCT-15 colon): > 100000 nM
GI50 (SF-268 CNS): 403 nM
TGI (SF-268 CNS): > 100000 nM
GI50 (CAKI-1 renal): 209 nM
TGI (CAKI-1 renal): 752 nM
GI50 (SR leukemia): 320 nM
TGI (SR leukemia): > 100000 nM
GI50 (NCI-H226 lung): 393 nM
TGI (NCI-H226 lung): > 100000 nM
GI50 (SNB-19 CNS): 357 nM
TGI (SNB-19 CNS): > 100000 nM
GI50 (OVCAR-4 ovarian): 263 nM
TGI (OVCAR-4 ovarian): > 100000 nM
GI50 (SK-MEL-28 melanoma): 470 nM
TGI (SK-MEL-28 melanoma): > 100000 nM
GI50 (SW-620 colon): 576 nM
TGI (SW-620 colon): > 100000 nM
GI50 (U251 CNS): 286 nM
TGI (U251 CNS): 5430 nM
GI50 (HCC-2998 colon): 331 nM
TGI (HCC-2998 colon): > 100000 nM
GI50 (LOX IMVI melanoma): 308 nM
TGI (LOX IMVI melanoma): > 42000 nM
GI50 (OVCAR-8 ovarian): 253 nM
TGI (OVCAR-8 ovarian): 1230 nM
GI50 (UACC-257 melanoma): 159 nM
TGI (UACC-257 melanoma): 996 nM
GI50 (MALME-3M melanoma): 265 nM
TGI (MALME-3M melanoma): 4040 nM
GI50 (A549 NSCLC): 302 nM
TGI (A549 NSCLC): 2900 nM
GI50 (SNB-75 CNS): 511 nM
TGI (SNB-75 CNS): 9350 nM
GI50 (NCI/ADR-RES ovarian): 345 nM
GI50 (EKVX NSCLC): 244 nM
TGI (EKVX NSCLC): > 27100 nM
GI50 (MOLT-4 leukemia): 329 nM
TGI (MOLT-4 leukemia): > 100000 nM
GI50 (SN12C renal): 296 nM
TGI (SN12C renal): > 100000 nM
GI50 (HOP-92 NSCLC): 59.6 nM
TGI (HOP-92 NSCLC): 405 nM
GI50 (M14 melanoma): 458 nM
TGI (M14 melanoma): > 54700 nM
GI50 (OVCAR-5 ovarian): 1330 nM
TGI (OVCAR-5 ovarian): > 29500 nM
GI50 (COLO 205 colon): 469 nM
TGI (COLO 205 colon): 1990 nM
GI50 (CCRF-CEM leukemia): 391 nM
TGI (CCRF-CEM leukemia): 24100 nM
GI50 (SF-539 CNS): 653 nM
TGI (SF-539 CNS): > 92200 nM
GI50 (NCI-H23 lung): 213 nM
TGI (NCI-H23 lung): 28200 nM
GI50 (RXF 393 renal): 461 nM
TGI (RXF 393 renal): 18800 nM
GI50 (KM12 colon): 354 nM
TGI (KM12 colon): > 100000 nM
GI50 (NCI-H460 lung): 311 nM
TGI (NCI-H460 lung): > 100000 nM
GI50 (HCT-116 colon): 263 nM
TGI (HCT-116 colon): 7120 nM
GI50 (A498 renal): 150 nM
TGI (A498 renal): 1360 nM
GI50 (HL-60(TB) leukemia): 304 nM
TGI (HL-60(TB) leukemia): 6340 nM
GI50 (PC-3 prostate): 379 nM
TGI (PC-3 prostate): > 100000 nM
GI50 (SK-MEL-2 melanoma): 347 nM
TGI (SK-MEL-2 melanoma): 2190 nM
GI50 (IGROV1 ovarian): 471 nM
TGI (IGROV1 ovarian): > 100000 nM
GI50 (SK-OV-3 ovarian): 468 nM
TGI (SK-OV-3 ovarian): 5800 nM
GI50 (HT29 colon): 431 nM
TGI (HT29 colon): > 100000 nM
GI50 (RPMI-8226 leukemia): 124 nM
TGI (RPMI-8226 leukemia): > 100000 nM
GI50 (UO-31 renal): 189 nM
TGI (UO-31 renal): 1380 nM
GI50 (BT-549 breast): 326 nM
TGI (BT-549 breast): 5340 nM
GI50 (MDA-MB-435): 310 nM
